According to patent US20250051347A1, “BIFUNCTIONAL CHIMERIC HETEROCYCLIC COMPOUND AND USE THEREOF AS ANDROGEN RECEPTOR DEGRADER” (Hinova Pharmaceuticals, Inc., priority 2021, published 2025):

Tests used:
[1] = Pharmacokinetics in mice (plasma exposure after oral administration); assay type: in vivo; settings: mouse, ICR mice, oral (i.g.) 3 mg/kg, read-out: After oral administration of 3 mg/kg, mouse plasma exposure AUCinf
Protocol: • LC-20AD high performance liquid chromatography (SHIMADZU, Japan) • API4000 triple quadrupole mass spectrometer (Applied Biosystem, USA) • Phenix Winnolin Pharmacokinetic software (Version 6.3, Certara, USA) • High speed freezing centrifuge (Thermo Fisher Scientific) • Analytical balance (Sartorius, SECURA225D-ICN) • ICR mice (Chengdu Dossy Experimental Animals CO., LTD.)
A suitable amount of drug was accurately weighed, and then the medium (5% DMSO, 15% HS-15, 80% DSW) was added to prepare the solution at a concentration of 0.1 mg/ml (i.v.) and 0.3 mg/ml (i.g.).
18 healthy adult ICR mice were divided into two groups (9 mice for i.v. group; 9 mice for i.g. group), and administered by tail vein or by gavage after fasting overnight (free drinking water); using the satellite blood collection method, 3 animals were collected at each time point, and then 0.1 ml of blood obtained at different time points was anticoagulated with EDTA-K2, centrifuged at 4° C. for 5 min to separate the plasma, and stored at −80° C. for detection. The sampling time points after i.v. administration were 5 min, 15 min, 0.5 h, 1 h, 2 h, 4 h, 8 h, 12 h, and 24 h; while the sampling time points for i.g. group were before administration (0 h) as well as 0.5 h, 1 h, 2 h, 4 h, 6 h, 8 h, 12 h, and 24 h after administration. Then, the drug concentration in plasma was determined by LC/MS/MS.

[2] = target: T1, androgen receptor (AR) splicing variant AR-v7 (Homo sapiens, UniProt P10275); test: Degradation activity on androgen receptor splicing variant AR-v7 in 22RV1 cells (ELISA); assay type: cell-based; settings: AR-v7 degradation in 22RV1 cells, 48 h
T1 construct: The degradation activity of compounds on AR-v7 in 22RV1 cells; host or cells: 22RV1 cells
T1 sequence (P10275 1-644 isoform P10275-3): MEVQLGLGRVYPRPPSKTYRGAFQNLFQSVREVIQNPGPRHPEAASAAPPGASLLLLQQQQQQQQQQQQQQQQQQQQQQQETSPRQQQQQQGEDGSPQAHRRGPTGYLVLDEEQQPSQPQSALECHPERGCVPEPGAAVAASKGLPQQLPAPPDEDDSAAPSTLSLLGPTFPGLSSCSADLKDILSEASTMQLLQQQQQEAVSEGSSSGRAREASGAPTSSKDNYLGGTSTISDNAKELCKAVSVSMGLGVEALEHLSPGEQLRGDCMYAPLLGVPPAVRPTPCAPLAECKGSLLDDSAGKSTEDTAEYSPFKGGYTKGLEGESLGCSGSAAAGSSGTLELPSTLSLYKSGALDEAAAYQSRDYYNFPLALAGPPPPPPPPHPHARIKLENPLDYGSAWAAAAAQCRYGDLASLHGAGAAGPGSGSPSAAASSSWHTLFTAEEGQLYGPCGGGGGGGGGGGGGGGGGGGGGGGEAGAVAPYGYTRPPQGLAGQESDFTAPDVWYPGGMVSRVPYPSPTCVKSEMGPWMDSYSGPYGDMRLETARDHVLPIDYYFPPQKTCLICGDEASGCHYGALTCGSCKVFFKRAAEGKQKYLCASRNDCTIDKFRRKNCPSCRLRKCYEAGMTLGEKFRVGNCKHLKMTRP

| SMILES | AUC(0-inf) [1] [ng·h/mL] | DC50 ([2]; class symbols) [nM] | DC50 ([2]; numeric values) [nM] |
| --- | --- | --- | --- |
| CC(C)(c1ccc(OCc2ccnc(N3CC4(CNC4)C3)n2)cc1)c1ccc(O[C@H]2C[C@H](Nc3ccc4c(c3)C(=O)N(C3CCC(=O)NC3=O)C4=O)C2)cc1 (stereo partly shown) [Example 82, 5-(((1r,3r)-3-(4-(2-(4-((2-(2,6-diazaspiro[3.3]heptan-2-yl)pyrimidin-4-yl)methoxy)phenyl)propan-2-yl)phenoxy)cyclobutyl)amino)-2-(2,6-dioxopiperidin-3-yl)isoindolin-1,3-dione] | 100 to 1000 | 11 to 100 |  |
| CC(C)(c1ccc(OCc2ccnc(N3CC4(COC4)C3)n2)cc1)c1ccc(C(=O)Nc2ccc3c(c2)C(=O)N(C2CCC(=O)NC2=O)C3=O)cc1 (stereo not shown) [Example 504, 4-(2-(4-((2-(2-oxa-6-azaspiro[3.3]heptan-6-yl)pyrimidin-4-yl)methoxy)phenyl)propan-2-yl)-N-(2-(2,6-dioxopiperidin-3-yl)-1,3-dioxoisoindolin-5-yl)benzamide] | 100 to 1000 | 101 to 1000 |  |
| CC(C)(c1ccc(OCc2ccnc(O[C@@H]3CCNC3)n2)cc1)c1ccc(O[C@H]2C[C@@H](Nc3ccc4c(c3)C(=O)N(C3CCC(=O)NC3=O)C4=O)C2)cc1 (stereo partly shown) [Example 242] | 100 to 1000 | 11 to 100 |  |
| CC(C)(c1ccc(Oc2ccnc(-n3nccn3)c2)cc1)c1ccc(O[C@H]2C[C@H](Nc3ccc4c(c3)C(=O)N(C3CCC(=O)NC3=O)C4=O)C2)cc1 (stereo partly shown) [Example 164] | 5000 to 30000 | 11 to 100 |  |
| CC(C)(c1ccc(OCc2ccnc(N3CC4(COC4)C3)n2)cc1)c1ccc(OC2CN(Cc3ccc4c(c3)C(=O)N(C3CCC(=O)NC3=O)C4=O)C2)cc1 (stereo not shown) [Example 148] | 1000 to 5000 | 101 to 1000 |  |
| Cc1nnc(-c2ccc(Oc3ccc(C(C)(C)c4ccc(O[C@H]5C[C@H](Nc6ccc7c(c6)C(=O)N(C6CCC(=O)NC6=O)C7=O)C5)cc4)cc3)cc2)o1 (stereo partly shown) [Example 322, 2-(2,6-dioxopiperidin-3-yl)-5-((1r,3r)-3-(4-(2-(4-(4-(5-methyl-1,3,4-oxadiazol-2-yl)phenoxy)phenyl)propan-2-yl)phenoxy)cyclobutyl)aminoisoindolin-1,3-dione] | 5000 to 30000 | < 10 |  |
| Cc1nnc(-c2ccc(Oc3ccc(C(C)(C)c4ccc(O[C@H]5C[C@H](Nc6ccc7c(c6)C(=O)N(C6CCC(=O)NC6=O)C7=O)C5)cc4)cc3)nn2)o1 (stereo partly shown) [Example 330] | 5000 to 30000 | 11 to 100 |  |
| O=C1CCC(N2C(=O)c3ccc(N[C@H]4C[C@H](Oc5ccc(Oc6ccc(Oc7ncc(-n8nccn8)cn7)cc6)cc5)C4)cc3C2=O)C(=O)N1 (stereo partly drawn) [Example 122, 5-(((trans)-3-(4-(4-((5-(2H-1,2,3-triazol-2-yl)pyrimidin-2-yl)oxy)phenoxy)phenoxy)cyclobutyl)amino)-2-(2,6-dioxopiperidin-3-yl)isoindolin-1,3-dione] | 5000 to 30000 | 11 to 100 |  |
| CC(C)(c1ccc(OCc2ccnc(N3CC4(COC4)C3)n2)cc1)c1ccc(O[C@H]2C[C@@H](Nc3cc4c(cc3F)C(=O)N(C3CCC(=O)NC3=O)C4=O)C2)cc1 (stereo partly shown) [Example 90, 5-(((1s,3s)-3-(4-(2-(4-((2-(2-oxa-6-azaspiro[3.3]heptane-6-yl)pyrimidin-4-yl)methoxy)phenyl)propan-2-yl)phenoxy)cyclobutyl)amino)-2-(2,6-dioxopiperidin-3-yl)-6-fluoroisoindolin-1,3-dione] | 1000 to 5000 | 11 to 100 |  |
| Cc1nnc(-c2ccnc(Oc3ccc(C(C)(C)c4ccc(O[C@H]5C[C@H](Nc6ccc7c(c6)C(=O)N(C6CCC(=O)NC6=O)C7=O)C5)cc4)cc3)n2)o1 (stereo partly shown) [Example 171] | 5000 to 30000 | 11 to 100 |  |
| CC(C)(c1ccc(OCc2ccnc(N3CC4(COC4)C3)n2)cc1)c1ccc(C(=O)NCCNc2ccc3c(c2)C(=O)N(C2CCC(=O)NC2=O)C3=O)cc1 (stereo not shown) [Example 501] | 1000 to 5000 | 11 to 100 |  |
| C=CC(c1ccc(Oc2ncc(-n3nccn3)cn2)cc1)c1ccc(O[C@H]2C[C@H](Nc3ccc4c(c3)C(=O)N(C3CCC(=O)NC3=O)C4=O)C2)cc1 (stereo partly shown) [Example 370, 5-(((1r,3r)-3-(4-(1-(4-((5-(2H-1,2,3-triazole-2-yl)pyrimidin-2-yl)oxy)phenyl)allyl)phenoxy)cyclobutyl)amino)-2-(2,6-dioxopiperidin-3-yl)isoindolin-1,3-dione] | 5000 to 30000 | 11 to 100 |  |
| Cc1noc(-c2cccc(COc3ccc(C(C)(C)c4ccc(O[C@H]5C[C@H](Nc6ccc7c(c6)C(=O)N(C6CCC(=O)NC6=O)C7=O)C5)cc4)cc3)n2)n1 (stereo partly shown) [Example 282] | 1000 to 5000 | 11 to 100 |  |

Second part, the compound after the results:

| AUC(0-inf) [1] [ng·h/mL] | DC50 ([2]; class symbols) [nM] | DC50 ([2]; numeric values) [nM] | SMILES |
| --- | --- | --- | --- |
| 1000 to 5000 | 11 to 100 |  | Cc1noc(-c2ccc(Oc3ccc(C(C)(C)c4ccc(O[C@H]5C[C@H](Nc6ccc7c(c6)C(=O)N(C6CCC(=O)NC6=O)C7=O)C5)cc4)cc3)cn2)n1 (stereo partly shown) [Example 582] |
| 5000 to 30000 | 11 to 100 |  | Cc1nnc(-c2nnc(Oc3ccc(C(C)(C)c4ccc(O[C@H]5C[C@H](Nc6ccc7c(c6)C(=O)N(C6CCC(=O)NC6=O)C7=O)C5)cc4)cc3)s2)o1 (stereo partly shown) [Example 593] |
| 5000 to 30000 | 11 to 100 |  | O=C1CCC(N2C(=O)c3ccc(N[C@H]4C[C@H](Oc5ccc(Cc6ccc(Oc7cnc(-n8ccnn8)nc7)cc6)cc5)C4)cc3C2=O)C(=O)N1 (stereo partly shown) [Example 521] |
| 5000 to 30000 |  | > 2000 | CC(C)(c1ccc(O)cc1)c1ccc(OCCCCCCCCOCCCCNc2ccc3c(c2)C(=O)N(C2CCC(=O)NC2=O)C3=O)cc1 (stereo not shown) [Example 438, 2-(2,6-dioxopiperidin-3-yl)-5-((4-((8-(4-(2-(4-hydroxylphenyl)propan-2-yl)phenoxy)octyl)oxy)butyl)amino)isoindolin-1,3-dione] |
| 5000 to 30000 | 11 to 100 |  | Cc1nsc(Oc2ccc(C(C)(C)c3ccc(O[C@H]4C[C@H](Nc5ccc6c(c5)C(=O)N(C5CCC(=O)NC5=O)C6=O)C4)cc3)cc2)n1 (stereo partly shown) [Example 591, 2-(2,6-dioxopiperidin-3-yl)-5-((1r,3r)-3-(4-(2-(4-((3-methyl-1,2,4-thiadiazol-5-yl)oxy)phenyl)propan-2-yl)phenoxy)cyclobutyl)aminoisoindolin-1,3-dione] |
| 5000 to 30000 | 11 to 100 |  | Cc1nc(-c2cncc(Oc3ccc(C(C)(C)c4ccc(O[C@H]5C[C@@H](Nc6ccc7c(c6)C(=O)N(C6CCC(=O)NC6=O)C7=O)C5)cc4)cc3)n2)no1 (stereo partly shown) [Example 599] |
| 5000 to 30000 |  | > 10000 | CC(=O)c1nccc(COc2ccc(C(C)(C)c3ccc(OC4CN(c5ccc6c(c5)C(=O)N(C5CCC(=O)NC5=O)C6=O)C4)cc3)cc2)n1 (stereo not shown) [Example 558] |
| 5000 to 30000 | 11 to 100 |  | Cc1nc(-c2cnc(Oc3ccc(C(C)(C)c4ccc(O[C@H]5C[C@@H](Nc6ccc7c(c6)C(=O)N(C6CCC(=O)NC6=O)C7=O)C5)cc4)cc3)cn2)no1 (stereo partly shown) [Example 598, 2-(2,6-dioxopiperidin-3-yl)-5-(((1s,3s)-3-(4-(2-(4-((5-(5-methyl-1,2,4-oxadiazol-3-yl)pyrazin-2-yl)oxy)phenyl)propan-2-yl)phenoxy)cyclobutyl)amino)isoindolin-1,3-dione] |
| 5000 to 30000 | 11 to 100 |  | CC(C)(c1ccc(OCc2cccc(-n3ccnn3)n2)cc1)c1ccc(O[C@H]2C[C@H](Nc3ccc4c(c3)C(=O)N(C3CCC(=O)NC3=O)C4=O)C2)cc1 (stereo partly shown) [Example 415] |
| 100 to 1000 |  |  | CC(C)(c1ccc(OCc2ccnc(NCC3CNC3)n2)cc1)c1ccc(O[C@H]2C[C@@H](Nc3ccc4c(c3)C(=O)N(C3CCC(=O)NC3=O)C4=O)C2)cc1 (stereo partly shown) [Example 406] |
| 100 to 1000 | 11 to 100 |  | CC(C)(c1ccc(OCc2ccnc(-n3cc(F)cn3)n2)cc1)c1ccc(O[C@H]2C[C@@H](Nc3ccc4c(c3)C(=O)N(C3CCC(=O)NC3=O)C4=O)C2)cc1 (stereo partly shown) [Example 460] |
| 5000 to 30000 | 11 to 100 |  | Cc1nnc(-c2cnc(Oc3ccc(C(C)(C)c4ccc(O[C@H]5C[C@H](Nc6ccc7c(c6)C(=O)N(C6CCC(=O)NC6=O)C7=O)C5)cc4)cc3)nc2)o1 (stereo partly shown) [Example 475, 2-(2,6-dioxopiperidin-3-yl)-5-(((1r,3r)-3-(4-(2-(4-((5-(5-methyl-1,3,4oxadiazol-2-yl)pyrimidin-2-yl)oxy)phenyl)propan-2-yl)phenoxy)cyclobutyl)amino)isoindolin-1,3-dione] |
